According to patent US20250367230A1, “Method for preparing SAMe microcapsules” (XIAMEN KINGDOMWAY BIOTECH. CO., LTD., priority 2024, published 2025):

Tests used:
[1] = test system: mouse gastrointestinal tract; assay: Effect on mouse gastrointestinal tract (indomethacin/ethanol ulcer model, gastric mucosal lesion area); type: in vivo, mice (C57); conditions: mice, 5.0 g/kg·bw gavage once a day for 21 days, then indomethacin 10 mg/kg·bw i.p. and 60% ethanol gavage
Text: Experimental animals: Healthy adult mice (C57, purchased from Pabeile Experimental Animal Breeding Co., Ltd.), with body weight of 18 to 22 g.
Experimental materials: The test samples were SAMe microcapsules obtained from the formulas in Examples 1 to 5 and Comparative Examples 1 to 9, and SAMe raw material.
Experimental method: The designed dose (5.0 g/kg·bw) was equivalent to 5 times the recommended dosage for humans, and an ulcer model control group was set. Each group was gavaged with the test sample once a day, and the control group was fed with an equal volume of distilled water. After 21 consecutive days of feeding, the animals were fasted for 1 day. 0.5 h after the last gavage, the mice of each group were intraperitoneally injected with indomethacin suspension (purchased from Liaoyang Helin Pharmaceutical Co., Ltd.) (10 mg/kg·bw), and 1 h later, the mice were gavaged with 60% ethanol ([…]). After 1 h, the mice were killed by cervical dislocation, laparotomy and ligation of pylorus were carried out, and 1 mL of 1% formalin was orally gavaged. The cardia was immediately ligated and the entire stomach was cut off. After flushing the stomach contents, the stomach was spread on a glass plate. Under a shadowless magnifying lamp, the area of gastric mucosal lesions was measured and statistically analyzed.

[2] = Determination of pH value of SAMe microcapsules; type: physicochemical; conditions: 1 g of sample added to 100 g of water
Method: 1 g of each of the above samples was taken and added to 100 g of water, and the pH value was measured.

With “S-Adenosyl-L-methionine Disulfate Tosylate [SAMe raw material]” the “Lesion area (gastric mucosal lesions)” value [1] was 11.57 ± 4.35 mm^2 and the pH value [2] was 1.3.
